Data: patent US3950537A, “Gastrointestinally active thioureas” (Rohm and Haas Company, priority 1975, dated 1976)
Where a name gives a salt, the structure may show the parent alone.

Key:
[1] = test system: diarrhea; assay: Antidiarrheal test (castor oil diarrhea); type: in vivo, Swiss-Webster mice (adult male); conditions: Mus musculus; oral, 1 h before castor oil; diarrhea noted 3 h later; maximum 30 mg./kg.; read-out: Antidiarrheal ED50 (inhibited diarrhea in 50% of the treated mice)
Protocol: In this test adult male Swiss-Webster mice weighing 30 to 40 g. were employed, using 6 mice per treatment. The test compound was administered orally in a dosage series with a maximum of 30 mg./kg. either in water if soluble or else in 0.5% methyl cellulose. One hour after treatment, each animal received a single dose of 0.3 ml. of castor oil, administered orally. The animals were then individually caged and provided food and water.

[2] = test system: gastric secretion; assay: Antisecretory test (pyloric ligation, gastric secretion volume); type: in vivo, Wistar rats (adult female); conditions: for ED50: Rattus norvegicus, orally 1 hour prior to pyloric ligation or subcutaneously immediately after, 5 h after ligation, maximum dosage 10 mg./kg., read-out: Antisecretory Activity ED50 (50% reduction in the volume of gastric secretion); for found to be active in the antisecretory test: rats, pyloric ligation, in words
Protocol: Adult female Wistar rats weighing 140 to 160 g. were starved for 24 hours prior to the test. The animals were anaesthetized with ether, shaved on the abdomen, and a small midline incision made. The pylorus was exposed, ligated, and the wound subsequently closed with wound clips. The animals were treated with the test compound administered either orally 1 hour prior to pyloric ligation or subcutaneously immediately after ligation. The test compound was administered in distilled water or 0.5% methyl cellulose. Six animals were used for each treatment. Five hours following the ligation, the animals were sacrificed, the stomachs were carefully removed and opened, and the gastric contents measured for volume and titratable acidity. […] A maximum dosage of 10 mg./kg. was used for the test compounds.

[3] = test system: charcoal entering the cecum; assay: Antimotility test (charcoal entering the cecum); type: in vivo, mice (adult male); conditions: for ED50: Mus musculus, oral, 1 h before charcoal, examined 3.5 h after charcoal, maximum dosage 30 mg./kg., read-out: Antimotility ED50 (prevented the charcoal from entering the cecum in 50% of the treated mice); for found to be active in the antimotility tests: mice, in words
Protocol: Adult male mice weighing in the range of 20 to 30 g. were starved for 24 hours prior to the test. The animals were then treated orally with the test compound dissolved in water or suspended in methyl cellulose. One hour later, each animal was dosed with 0.2 ml. of a charcoal suspension consisting of 5% activated charcoal suspended in 0.25% methyl cellulose. The animals were sacrificed 3.5 hours after the charcoal administration and their cecums examined for the presence or absence of charcoal. […] A maximum dosage of 30 mg./kg. was used.

CC(C)[N+](C)(CCOC(=O)C1c2ccccc2Oc2ccccc21)C(C)C [Pro-Banthine, propantheline bromide, reference compound]
ED50 [1]: > 80 mg/kg
ED50 [2]: 8 mg/kg
ED50 [3]: 14.7 mg/kg

OCCNC(=S)Nc1cccc2ccccc12 [T]
ED50 [1]: 15 to 30 mg/kg
ED50 [3]: 7 mg/kg

COc1ccc(NC(=S)NCCO)c(C)c1 [Preparation R]
found to be active in the antimotility tests [3]: active

Cc1cc(Cl)ccc1NC(=S)NCCO [L]
ED50 [1]: < 30 mg/kg
ED50 [2]: 1 to 3 mg/kg
ED50 [3]: 15 to 30 mg/kg

Cc1ccc(NC(=S)N(C)CCO)c(C)c1 [AL]
ED50 [1]: > 30 mg/kg
ED50 [2]: > 10 mg/kg
ED50 [3]: > 30 mg/kg

Cc1cccc(NC(=S)NCCO)c1C [Preparation E]
found to be active in the antisecretory test [2]: active
found to be active in the antimotility tests [3]: active

Cc1ccc(NC(=S)NCCO)c(C)c1 [Preparation F, 1-(2,4-dimethylphenyl)-3-(2-hydroxyethyl)-thiourea]
found to be active in the antisecretory test [2]: active
found to be active in the antimotility tests [3]: active

COc1ccc(NC(=S)NCCO)c(C)c1 [R]
ED50 [1]: 30 mg/kg
ED50 [2]: > 10 mg/kg
ED50 [3]: 12.5 mg/kg

Cc1ccccc1NC(=S)N(C)C [AA]
ED50 [1]: < 30 mg/kg
ED50 [2]: > 10 mg/kg
ED50 [3]: < 30 mg/kg

Cc1cccc(C)c1NC(=S)NCCN [AI]
ED50 [1]: 11.5 mg/kg
ED50 [2]: > 10 mg/kg
ED50 [3]: 15.5 mg/kg

CCNC(=S)Nc1ccc(C)cc1C [AF]
ED50 [2]: > 10 mg/kg
ED50 [3]: > 30 mg/kg

Cc1cccc(Cl)c1NC(=S)NCCO [N]
ED50 [2]: > 10 mg/kg
ED50 [3]: < 30 mg/kg

Cc1ccc(NC(=S)NCCO)cc1 [D]
ED50 [3]: > 30 mg/kg

Cc1ccc(NC(=S)NCCO)cc1C [I]
ED50 [1]: > 30 mg/kg
ED50 [2]: > 10 mg/kg
ED50 [3]: > 30 mg/kg

Cc1ccc(NC(=S)N(C)C)c(C)c1 [AB]
ED50 [1]: 3.8 mg/kg
ED50 [2]: > 10 mg/kg
ED50 [3]: 4.4 mg/kg

Cc1cccc(C)c1NC(=S)N(C)C [AC]
ED50 [2]: > 10 mg/kg
ED50 [3]: < 30 mg/kg

CCOC(=O)C1(c2ccccc2)CCN(CCC(C#N)(c2ccccc2)c2ccccc2)CC1 [Lomotil, diphenoxylate hydrochloride, reference compound]
ED50 [1]: 9.9 mg/kg
ED50 [3]: 2 mg/kg

Cc1ccc(NC(=S)NCCN(C)C)c(C)c1 [AH]
ED50 [1]: > 30 mg/kg
ED50 [2]: > 10 mg/kg
ED50 [3]: 20 mg/kg

Cc1cc(Cl)ccc1NC(=S)N(C)C [Preparation AD, 1-(2-methyl-4-chlorophenyl)-3,3-dimethylthiourea]
found to be active in the antimotility tests [3]: active

Cc1cccc(C)c1NC(=S)N(C)C [Preparation AC]
found to be active in the antimotility tests [3]: active

Cc1cc(Cl)ccc1NC(=S)N(C)C [AD]
ED50 [2]: > 10 mg/kg
ED50 [3]: < 30 mg/kg

OCCNC(=S)Nc1cccc2ccccc12 [Preparation T]
found to be active in the antimotility tests [3]: active

CCc1ccccc1NC(=S)NCCO [Preparation B]
found to be active in the antimotility tests [3]: active

Cc1ccc(NC(=S)NCCCO)c(C)c1 [AQ]
ED50 [1]: > 30 mg/kg
ED50 [2]: > 10 mg/kg
ED50 [3]: > 30 mg/kg

Cc1cccc(C)c1NC(=S)NCCO [Preparation H, 1-(2,6-dimethylphenyl)-3-(2-hydroxyethyl)thiourea]
found to be active in the antisecretory test [2]: active
found to be active in the antimotility tests [3]: active

Cc1cc(Cl)ccc1NC(=S)NCCN [AJ]
ED50 [2]: > 10 mg/kg
ED50 [3]: 30 mg/kg

Cc1cc(C)cc(NC(=S)NCCO)c1 [J]
ED50 [2]: > 10 mg/kg
ED50 [3]: > 30 mg/kg

Cc1cc(O)ccc1NC(=S)NCCO [Q]
ED50 [1]: > 30 mg/kg
ED50 [2]: > 10 mg/kg
ED50 [3]: > 30 mg/kg

Cc1cccc(NC(=S)NCCO)c1C [E]
ED50 [1]: 12.5 mg/kg
ED50 [2]: 3 mg/kg
ED50 [3]: 5 mg/kg

Cc1cccc(C)c1NC(=S)NCCN [Preparation AI]
found to be active in the antimotility tests [3]: active

Cc1ccc(NC(=S)NCCN(C)C)c(C)c1 [Preparation AH, 1-(2,4-dimethylphenyl)-3-(2-dimethylaminoethyl)-thiourea]
found to be active in the antimotility tests [3]: active

Cc1ccc(Cl)cc1NC(=S)NCCO [Preparation M]
found to be active in the antimotility tests [3]: active

OCCNC(=S)Nc1ccc(Cl)cc1Cl [P]
ED50 [1]: > 30 mg/kg
ED50 [2]: > 10 mg/kg
ED50 [3]: > 30 mg/kg

COc1ccc2c3c1O[C@H]1[C@@H](O)C=C[C@H]4[C@@H](C2)N(C)CC[C@@]341 [codeine phosphate, reference compound]
ED50 [1]: 35 mg/kg
ED50 [3]: 29 mg/kg

CNC(=S)Nc1ccc(C)cc1C [AE]
ED50 [2]: > 10 mg/kg
ED50 [3]: > 30 mg/kg

Cc1ccc(Cl)cc1NC(=S)NCCO [M]
ED50 [1]: 15 to 30 mg/kg
ED50 [2]: > 10 mg/kg
ED50 [3]: 7.4 mg/kg

CN1CCCN=C1COC(=O)C(O)(c1ccccc1)C1CCCCC1 (stereo not shown) [Daricon, oxyphencyclimine hydrochloride, reference compound]
ED50 [1]: 50 mg/kg
ED50 [2]: 2.4 mg/kg
ED50 [3]: 3.4 mg/kg

Cc1ccc(NC(=S)NC(C)CO)c(C)c1 (stereo not shown) [AN]
ED50 [2]: > 10 mg/kg
ED50 [3]: > 30 mg/kg

Cc1ccc(NC(=S)N(C)C)c(C)c1 [Preparation AB]
found to be active in the antimotility tests [3]: active

Cc1cc(Cl)ccc1NC(=S)NCCN [Preparation AJ]
found to be active in the antimotility tests [3]: active

Cc1ccccc1NC(=S)N(C)C [Preparation AA]
found to be active in the antimotility tests [3]: active

Cc1ccc(NC(=S)N(CCO)CCO)c(C)c1 [AM]
ED50 [1]: > 30 mg/kg
ED50 [2]: > 10 mg/kg
ED50 [3]: > 30 mg/kg

Cc1cc(C)c(NC(=S)NCCO)c(C)c1 [S]
ED50 [1]: < 30 mg/kg
ED50 [2]: < 10 mg/kg
ED50 [3]: 6.4 mg/kg

Cc1ccccc1NC(=S)NCCO [A]
ED50 [1]: 7.8 mg/kg
ED50 [2]: 3 to 10 mg/kg
ED50 [3]: 11.5 mg/kg

OCCNC(=S)Nc1ccc2ccccc2c1 [U]
ED50 [1]: > 30 mg/kg
ED50 [2]: > 10 mg/kg
ED50 [3]: > 30 mg/kg

Cc1cccc(Cl)c1NC(=S)NCCO [Preparation N]
found to be active in the antimotility tests [3]: active

Cc1cccc(C)c1NC(=O)NCCO [AR]
ED50 [1]: > 30 mg/kg
ED50 [2]: > 10 mg/kg
ED50 [3]: > 30 mg/kg

Cc1ccc(NC(=S)NCCS)c(C)c1 [AK]
ED50 [1]: > 30 mg/kg
ED50 [2]: > 10 mg/kg
ED50 [3]: 15 to 30 mg/kg

Cc1cc(C)c(NC(=S)NCCO)c(C)c1 [Preparation S]
found to be active in the antisecretory test [2]: active
found to be active in the antimotility tests [3]: active

CCc1ccccc1NC(=S)NCCO [B]
ED50 [1]: 15 to 30 mg/kg
ED50 [2]: > 10 mg/kg
ED50 [3]: > 15 mg/kg

Cc1cc(Br)ccc1NC(=S)NCCO [O]
ED50 [1]: > 30 mg/kg
ED50 [2]: < 10 mg/kg
ED50 [3]: 18.5 mg/kg

Cc1c(Cl)cccc1NC(=S)NCCO [K]
ED50 [1]: < 30 mg/kg
ED50 [2]: > 10 mg/kg
ED50 [3]: 7.2 mg/kg

Cc1cc(Cl)ccc1NC(=S)NCCO [Preparation L]
found to be active in the antisecretory test [2]: active
found to be active in the antimotility tests [3]: active

Cc1ccc(NC(=S)NCCN)c(C)c1 [Preparation AG]
found to be active in the antimotility tests [3]: active

Cc1cc(Br)ccc1NC(=S)NCCO [Preparation O]
found to be active in the antimotility tests [3]: active

Cc1cccc(C)c1NC(=S)NCCO [H]
ED50 [1]: 4.3 mg/kg
ED50 [2]: 0.5 to 1 mg/kg
ED50 [3]: 2.4 mg/kg

Cc1ccc(C)c(NC(=S)NCCO)c1 [G]
ED50 [1]: > 30 mg/kg
ED50 [2]: > 10 mg/kg
ED50 [3]: > 30 mg/kg

CN1[C@@H]2CC[C@H]1C[C@@H](OC(=O)C(CO)c1ccccc1)C2 (stereo partly shown) [atropine, reference compound]
ED50 [1]: > 40 mg/kg
ED50 [3]: 9.8 mg/kg

Cc1ccccc1NC(=S)NCCO [Preparation A, 1-(2-methylphenyl)-3-(2-hydroxyethyl)thiourea]
found to be active in the antisecretory test [2]: active
found to be active in the antimotility tests [3]: active

Cc1ccc(NC(=S)NCCN)c(C)c1 [AG]
ED50 [1]: 10 mg/kg
ED50 [2]: > 10 mg/kg
ED50 [3]: 13 mg/kg

Cc1ccc(NC(=S)NCCO)c(C)c1 [F]
ED50 [1]: 10.5 mg/kg
ED50 [2]: 0.5 to 1 mg/kg
ED50 [3]: 8.6 mg/kg

Cc1ccc(NC(=S)NCC(C)O)c(C)c1 (stereo not shown) [AP]
ED50 [1]: > 30 mg/kg
ED50 [2]: > 10 mg/kg
ED50 [3]: > 30 mg/kg

CC(C)c1ccccc1NC(=S)NCCO [C]
ED50 [1]: > 30 mg/kg
ED50 [2]: > 10 mg/kg
ED50 [3]: > 30 mg/kg

Cc1ccc(NC(=S)NC(C)(C)CO)c(C)c1 [AO]
ED50 [1]: > 30 mg/kg
ED50 [2]: > 10 mg/kg
ED50 [3]: < 30 mg/kg

Cc1c(Cl)cccc1NC(=S)NCCO [Preparation K]
found to be active in the antimotility tests [3]: active
